Reference: PubChem BioAssay AID1224920 (Broad Institute, 2016)
Values joined by “and” are separate entries in the source; they are usually repeats but may differ in a detail not shown here. Identical values can stand only once.

Tested on: Clostridium difficile clinical isolate growth, OD600, 24 h
Test: growth modulation of Clostridium difficile isolate – OD600, 9-point, retest, dose response (AID 1224920);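 note: inhibitors lower culture turbidity so OD600 falls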

Compound | IC50
Cc1cccc(-c2ccc(C3[C@@H]4CN(C(=O)C5CCCC5)C[C@H]3N4)cc2)c1 (stereo not given in full) | 62.9 µM
COc1ccc(-c2ccc(C3[C@@H]4CN(S(=O)(=O)c5ccccc5C)C[C@H]3N4)cc2)cc1 (stereo not given in full) | 21.9 µM
Cc1cccc(-c2ccc(C3[C@@H]4CN(C(=O)Nc5ccc(F)cc5)C[C@H]3N4)cc2)c1 (stereo not given in full) | 12.2 µM
COc1ccccc1CN1CC[C@@H]2[C@H]1c1cc(C#Cc3ccccc3)ccc1N[C@@H]2CO | 26.2 µM
Cc1ccc(-c2ccc(C3[C@H]4CNC[C@@H]3N4S(=O)(=O)c3ccccc3C)cc2)cc1 (stereo not given in full) | 27.6 µM
Cc1ccccc1-c1ccc(C2[C@@H]3CN(S(=O)(=O)c4ccccc4C)C[C@H]2N3)cc1 (stereo not given in full) | 27.5 µM
COc1ccc(-c2ccc(C3[C@@H]4CN(C(=O)Nc5cccc(F)c5)C[C@H]3N4)cc2)cc1 (stereo not given in full) | 26 µM
O=C(C1CCC1)N1C[C@@H]2N[C@H](C1)C2c1ccc(/C=C/c2ccccc2)cc1 (stereo not given in full) | 74.4 µM
CC(C)CC#Cc1ccc([C@@H]2[C@@H](CO)N3CCCCN(C(=O)Nc4ccccc4)C[C@H]23)cc1 | 10.9 µM
C(=C\c1ccc(C2[C@H]3CNC[C@@H]2N3Cc2nccs2)cc1)/c1ccccc1 (stereo not given in full) | 60.4 µM
Cc1ccccc1S(=O)(=O)N1CCCCN2[C@H](CO)[C@H](c3ccc(-c4cccc(F)c4)cc3)[C@H]2C1 | 11.3 µM
COc1ccc(-c2ccc(C3[C@@H]4CN(Cc5cccc(OC)c5)C[C@H]3N4)cc2)cc1 (stereo not given in full) | 38.5 µM and 16.2 µM
O=C(c1cccc(F)c1)N1CC[C@H]2[C@H](CO)Nc3ccc(-c4cccc(F)c4)cc3[C@H]21 | 124 µM
N#Cc1cccc(-c2ccc(C3[C@@H]4CN(Cc5ccccc5F)C[C@H]3N4)cc2)c1 (stereo not given in full) | 28.6 µM and 26.1 µM
OC[C@@H]1Nc2ccc(C#Cc3cccc(F)c3)cc2[C@H]2NCC[C@@H]12 | 38.3 µM
O=C(Nc1ccc(F)cc1)N1CCCCN2[C@@H](CO)[C@@H](c3ccc(-c4cccc(F)c4)cc3)[C@@H]2C1 | 13.2 µM
C/C=C/c1ccc(C2[C@@H]3CN(Cc4cccc(F)c4)C[C@H]2N3)cc1 (stereo not given in full) | 14.3 µM and 27.3 µM
COc1ccc(-c2ccc(C3[C@H]4CNC[C@@H]3N4Cc3ccc4c(c3)OCO4)cc2)cc1 (stereo not given in full) | 53.1 µM

Compound | IC50
COc1cccc(CN2[C@@H]3CNC[C@H]2C3c2ccc(-c3cccc(OC)c3)cc2)c1 (stereo not given in full) | 13.3 µM
Cc1ccccc1-c1ccc(C2[C@@H]3CN(C(=O)Nc4ccc(F)cc4)C[C@H]2N3)cc1 (stereo not given in full) | 40.5 µM
O=C(Nc1ccc(C(F)(F)F)cc1)N1[C@@H]2CNC[C@H]1C2c1ccc(-c2ccc(F)cc2)cc1 (stereo not given in full) | 13.9 µM
COc1ccc(NC(=O)N2CCCCN3[C@H](CO)[C@H](c4ccc(C#Cc5ccccc5)cc4)[C@H]3C2)cc1 | 27.5 µM
COc1cccc(S(=O)(=O)N2[C@@H]3CNC[C@H]2C3c2ccc(/C=C/c3ccccc3)cc2)c1 (stereo not given in full) | 23.9 µM
OC[C@@H]1Nc2ccc(C#Cc3ccc(F)cc3)cc2[C@H]2NCC[C@@H]12 | 59.4 µM
OC[C@@H]1[C@H](c2ccc(C#CC3CCCC3)cc2)[C@H]2CN(CCC(F)(F)F)CCCCN12 | 26.6 µM
COc1ccc(-c2ccc(C3[C@@H]4CN(Cc5ccccn5)C[C@H]3N4)cc2)cc1 (stereo not given in full) | 70.1 µM
COc1ccccc1-c1ccc(C2[C@@H]3CN(S(=O)(=O)c4ccccc4C)C[C@H]2N3)cc1 (stereo not given in full) | 28.1 µM
COc1ccccc1NC(=O)N1C[C@@H]2N[C@H](C1)C2c1ccc(/C=C/c2ccccc2)cc1 (stereo not given in full) | 10.7 µM
CCNC(=O)C[C@H]1CC[C@H]2[C@@H](COC[C@@H](O)CN2C(=O)Nc2ccc(C(F)(F)F)cc2)O1 | 8.27 µM
COc1cccc(CN2C[C@@H]3N[C@H](C2)C3c2ccc(-c3ccccc3F)cc2)c1 (stereo not given in full) | 9.26 µM and 6.5 µM
COc1cccc(C#Cc2ccc3c(c2)[C@@H]2[C@@H](CCN2C(=O)c2ccccc2F)[C@@H](CO)N3C)c1 | 27.7 µM
O=C(C[C@H]1CC[C@@H]2[C@H](COC[C@@H](O)CN2C(=O)Nc2ccc(Cl)c(Cl)c2)O1)NCc1ccncc1 | 8.71 µM
Fc1ccc(F)c(CN2[C@@H]3CNC[C@H]2C3c2ccc(-c3ccccc3)cc2)c1 (stereo not given in full) | 44.8 µM
N#Cc1ccc(-c2ccc3c(c2)[C@H]2[C@H](CCN2Cc2ccc4c(c2)OCO4)[C@H](CO)N3)cc1 | 23.4 µM
Fc1ccc(-c2ccc(C3[C@@H]4CN(Cc5cccc(F)c5)C[C@H]3N4)cc2)cc1 (stereo not given in full) | 5.47 µM and 20.4 µM
